The pEC50 is the negative decadic logarithm of the EC50, by convention in mol/L.

One assay addresses T1, human CRF2a receptor (Homo sapiens, UniProt Q13324).
T1 construct: expressed in transfected cells; host or cells: TeloHEAC cells
T1 sequence (Q13324 1-411): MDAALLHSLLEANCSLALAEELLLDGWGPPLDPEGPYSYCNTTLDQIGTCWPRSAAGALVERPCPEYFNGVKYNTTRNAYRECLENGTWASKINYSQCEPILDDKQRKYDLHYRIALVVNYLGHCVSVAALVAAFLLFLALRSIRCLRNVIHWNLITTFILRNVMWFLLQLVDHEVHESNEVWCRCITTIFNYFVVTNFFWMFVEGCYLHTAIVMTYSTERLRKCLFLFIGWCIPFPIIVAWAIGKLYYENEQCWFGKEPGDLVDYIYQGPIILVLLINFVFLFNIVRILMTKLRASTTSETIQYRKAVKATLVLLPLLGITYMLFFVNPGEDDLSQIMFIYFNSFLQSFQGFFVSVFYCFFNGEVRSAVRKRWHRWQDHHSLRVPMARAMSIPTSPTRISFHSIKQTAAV
In words: Activity at human CRF2a receptor, cAMP functional assay in TeloHEAC cells. The settings on record: TeloHEAC cells stably expressing human CRF2a receptor, relative to urocortin 2 (100 nM = 100%). Type of assay: cell-based. In short, it runs like this: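 cAMP accumulation was measured by HTRF 665/620 nm ratio after 30 min at 37° C compound exposure (16 twofold dilutions) of CRF2a-expressing TeloHEAC cells, 10000/well, in HEPES-buffered HBSS plus IBMX. Activity was normalised to urocortin 2 at 100 nM (100%), and EC50 was the concentration giving half-maximal activation.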

Another assay deals with T2, CFR1R receptor (Homo sapiens, UniProt P34998).
T2 construct: host or cells: CHO-K1 (clone 2)
T2 sequence (P34998 24-415): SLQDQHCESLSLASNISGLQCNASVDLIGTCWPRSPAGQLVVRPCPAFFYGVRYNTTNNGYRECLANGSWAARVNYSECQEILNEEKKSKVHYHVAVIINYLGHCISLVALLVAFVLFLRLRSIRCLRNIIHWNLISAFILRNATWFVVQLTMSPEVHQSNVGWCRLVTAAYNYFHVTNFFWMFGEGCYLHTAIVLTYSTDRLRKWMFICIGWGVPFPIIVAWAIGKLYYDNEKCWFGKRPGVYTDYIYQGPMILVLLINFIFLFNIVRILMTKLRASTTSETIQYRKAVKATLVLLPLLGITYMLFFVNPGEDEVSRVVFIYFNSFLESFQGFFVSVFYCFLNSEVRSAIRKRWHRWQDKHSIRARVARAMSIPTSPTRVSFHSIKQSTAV
In words: Activity at anti-target CFR1R receptor, cAMP assay in CRF1R-overexpression CHO-K1 cells. The settings on record: 100% = Sauvagine at 100 nM; for pEC50: cAMP. Type of assay: cell-based. In short, it runs like this: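 Uses frozen stocks of CHO-K1 clone 2 cells overexpressing human CRF1R, plated at 4000 cells/well final, with cAMP measured by the same protocol as the TeloHAEC line. Full-activation control: 100 nM Sauvagine.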
On the technique in general: Changes in cAMP serve as a functional read-out for many G protein-coupled receptors.

SMILES strings stand for the structures. pEC50: −log10 of the molar value. *1 amine or outer side, *2 acyl side, *3 side chain or, on linkers, in order; H or OH if unused. Where a SMILES comes first, the peptide text is derived from it. Side-chain parts run from the residue outwards. [ ]: non-standard residue; d: D form. The star is where a group is joined. C16 diacid = O=C(O)CCCCCCCCCCCCCCC(=O)*; γGlu = O=C(O)[C@H](CCC(=O)[*:2])N[*:1]; NMeI = CC[C@H](C)[C@H](NC)C(=O)O; Api = NC1(C(=O)O)CCNCC1; Hexanoyl = CCCCCC(=O)*; Aib = CC(C)(N)C(=O)O

For `CC[C@H](C)[C@H](NC(C)=O)C(=O)N[C@H](C(=O)N[C@@H](CC(C)C)C(=O)N[C@@H](CO)C(=O)N[C@@H](CC(C)C)C(=O)N[C@@H](CC(=O)O)C(=O)N[C@@H](C(=O)N1CCC[C@H]1C(=O)N[C@H](C(=O)N[C@@H](CCCCN)C(=O)N[C@@H](CC(C)C)C(=O)N[C@@H](CCCCNC(=O)CC[C@H](NC(=O)CCCCCCCCCCCCCCC(=O)O)C(=O)O)C(=O)N[C@@H](CCCCN)C(=O)N[C@H](C(=O)N[C@@H](CC(C)C)C(=O)N[C@@H](CC(C)C)C(=O)N[C@@H](CCC(=O)O)C(=O)N[C@@H](CCC(N)=O)C(=O)N[C@@H](CCC(=O)O)C(=O)N[C@@H](CCCCN)C(=O)N[C@@H](CCC(N)=O)C(=O)N[C@@H](CCCCN)C(=O)N[C@@H](C)C(=O)N[C@@H](CCC(N)=O)C(=O)N[C@@H](CCCNC(=N)N)C(=O)N[C@@H](CCC(=O)O)C(=O)N[C@@H](CCC(N)=O)C(=O)N[C@@H](C)C(=O)N[C@@H](CCC(=O)O)C(=O)N[C@H](C(=O)N[C@@H](CC(N)=O)C(=O)NC1(C(=O)N[C@@H](CCC(N)=O)C(=O)N[C@H](C(=O)N[C@@H](CC(C)C)C(=O)N[C@@H](C)C(=O)N[C@@H](CCC(N)=O)C(=O)N[C@H](C(N)=O)C(C)C)[C@@H](C)CC)CCNCC1)[C@@H](C)O)[C@@H](C)CC)[C@@H](C)CC)C(C)C)C(C)C` [compound 152] (Ac-IVLSLD[dV]PIKLK([γGlu-C16 diacid])KILLEQEKQKAQREQAETN[Api]QILAQV-NH2), the pEC50 was 9.29 on human CRF2a receptor and below 6.60 at CFR1R receptor. The “Emax (% I)” value on CFR1R receptor is 25 % I.

For the compound `CC[C@H](C)[C@H](NC(C)=O)C(=O)N[C@H](C(=O)N[C@@H](CC(C)C)C(=O)N[C@@H](CO)C(=O)N[C@@H](CC(C)C)C(=O)N[C@@H](CC(=O)O)C(=O)N[C@@H](C(=O)N1CCC[C@H]1C(=O)N[C@H](C(=O)N[C@@H](CCCCN)C(=O)N[C@@H](CC(C)C)C(=O)N[C@@H](CCCCNC(=O)CC[C@H](NC(=O)CCCCCCCCCCCCCCC(=O)O)C(=O)O)C(=O)N[C@@H](CCCCN)C(=O)N[C@H](C(=O)N[C@@H](CC(C)C)C(=O)N[C@@H](CC(C)C)C(=O)N[C@@H](CCC(=O)O)C(=O)N[C@@H](CCC(N)=O)C(=O)N[C@@H](CCC(=O)O)C(=O)N[C@@H](CCCCN)C(=O)N[C@@H](CCC(N)=O)C(=O)N[C@@H](CCCCN)C(=O)NC(C)(C)C(=O)N[C@@H](CCC(N)=O)C(=O)N[C@@H](CCCNC(=N)N)C(=O)N[C@@H](CCC(=O)O)C(=O)N[C@@H](CCC(N)=O)C(=O)N[C@@H](C)C(=O)N[C@@H](CCC(=O)O)C(=O)N[C@H](C(=O)N[C@@H](CC(N)=O)C(=O)NC1(C(=O)N[C@@H](CCC(N)=O)C(=O)N[C@H](C(=O)N[C@@H](CC(C)C)C(=O)N[C@@H](C)C(=O)N[C@@H](CCC(N)=O)C(=O)N[C@H](C(N)=O)C(C)C)[C@@H](C)CC)CCNCC1)[C@@H](C)O)[C@@H](C)CC)[C@@H](C)CC)C(C)C)C(C)C` [compound 153] (Ac-IVLSLD[dV]PIKLK([γGlu-C16 diacid])KILLEQEKQK[Aib]QREQAETN[Api]QILAQV-NH2), the pEC50 at human CRF2a receptor is 9.39; at CFR1R receptor, below 6.60. Also, the “Emax (% I)” value at CFR1R receptor was 22 % I.

On human CRF2a receptor, `CC[C@H](C)[C@H](NC)C(=O)N[C@H](C(=O)N[C@@H](CC(C)C)C(=O)N[C@@H](CO)C(=O)N[C@@H](CC(C)C)C(=O)N[C@@H](CC(=O)O)C(=O)N[C@@H](C(=O)N1CCC[C@H]1C(=O)N[C@H](C(=O)N[C@@H](CCCCN)C(=O)N[C@@H](CC(C)C)C(=O)N[C@@H](CCCCNC(=O)CC[C@H](NC(=O)CCCCCCCCCCCCCCC(=O)O)C(=O)O)C(=O)N[C@@H](CCCCN)C(=O)N[C@H](C(=O)N[C@@H](CC(C)C)C(=O)N[C@@H](CC(C)C)C(=O)N[C@@H](CCC(=O)O)C(=O)N[C@@H](CCC(N)=O)C(=O)N[C@@H](CCC(=O)O)C(=O)N[C@@H](CCCCN)C(=O)N[C@@H](CCC(N)=O)C(=O)N[C@@H](CCCCN)C(=O)N[C@@H](C)C(=O)N[C@@H](CCC(N)=O)C(=O)N[C@@H](CCCNC(=N)N)C(=O)N[C@@H](CCC(=O)O)C(=O)N[C@@H](CCC(N)=O)C(=O)N[C@@H](C)C(=O)N[C@@H](CCC(=O)O)C(=O)N[C@H](C(=O)N[C@@H](CC(N)=O)C(=O)NC1(C(=O)N[C@@H](CCC(N)=O)C(=O)N[C@H](C(=O)N[C@@H](CC(C)C)C(=O)N[C@@H](C)C(=O)N[C@@H](CCC(N)=O)C(=O)N[C@H](C(N)=O)C(C)C)[C@@H](C)CC)CCNCC1)[C@@H](C)O)[C@@H](C)CC)[C@@H](C)CC)C(C)C)C(C)C` [compound 154] (H-[NMeI]VLSLD[dV]PIKLK([γGlu-C16 diacid])KILLEQEKQKAQREQAETN[Api]QILAQV-NH2) showed a pEC50 of 9.28. At CFR1R receptor, the “Emax (% I)” value is 24 % I and the pEC50 was below 6.60.

As for `CC[C@H](C)[C@H](NC)C(=O)N[C@H](C(=O)N[C@@H](CC(C)C)C(=O)N[C@@H](CO)C(=O)N[C@@H](CC(C)C)C(=O)N[C@@H](CC(=O)O)C(=O)N[C@@H](C(=O)N1CCC[C@H]1C(=O)N[C@H](C(=O)N[C@@H](CCCCN)C(=O)N[C@@H](CC(C)C)C(=O)N[C@@H](CCCCNC(=O)CC[C@H](NC(=O)CCCCCCCCCCCCCCC(=O)O)C(=O)O)C(=O)N[C@@H](CCCCN)C(=O)N[C@H](C(=O)N[C@@H](CC(C)C)C(=O)N[C@@H](CC(C)C)C(=O)N[C@@H](CCC(=O)O)C(=O)N[C@@H](CCC(N)=O)C(=O)N[C@@H](CCC(=O)O)C(=O)N[C@@H](CCCCN)C(=O)N[C@@H](CCC(N)=O)C(=O)N[C@@H](CCCCN)C(=O)NC(C)(C)C(=O)N[C@@H](CCC(N)=O)C(=O)N[C@@H](CCCNC(=N)N)C(=O)N[C@@H](CCC(=O)O)C(=O)N[C@@H](CCC(N)=O)C(=O)N[C@@H](C)C(=O)N[C@@H](CCC(=O)O)C(=O)N[C@H](C(=O)N[C@@H](CC(N)=O)C(=O)NC1(C(=O)N[C@@H](CCC(N)=O)C(=O)N[C@H](C(=O)N[C@@H](CC(C)C)C(=O)N[C@@H](C)C(=O)N[C@@H](CCC(N)=O)C(=O)N[C@H](C(N)=O)C(C)C)[C@@H](C)CC)CCNCC1)[C@@H](C)O)[C@@H](C)CC)[C@@H](C)CC)C(C)C)C(C)C` [compound 155] (H-[NMeI]VLSLD[dV]PIKLK([γGlu-C16 diacid])KILLEQEKQK[Aib]QREQAETN[Api]QILAQV-NH2), the pEC50 at human CRF2a receptor was 9.29; at CFR1R receptor, below 6.60. The “Emax (% I)” value at CFR1R receptor is 26 % I.

As to `CCCCCC(=O)N[C@H](C(=O)N[C@@H](CC(C)C)C(=O)N[C@@H](CO)C(=O)N[C@@H](CC(C)C)C(=O)N[C@@H](CC(=O)O)C(=O)N[C@@H](C(=O)N1CCC[C@H]1C(=O)N[C@H](C(=O)N[C@@H](CCCCN)C(=O)N[C@@H](CC(C)C)C(=O)N[C@@H](CCCCNC(=O)CC[C@H](NC(=O)CCCCCCCCCCCCCCC(=O)O)C(=O)O)C(=O)N[C@@H](CCCCN)C(=O)N[C@H](C(=O)N[C@@H](CC(C)C)C(=O)N[C@@H](CC(C)C)C(=O)N[C@@H](CCC(=O)O)C(=O)N[C@@H](CCC(N)=O)C(=O)N[C@@H](CCC(=O)O)C(=O)N[C@@H](CCCCN)C(=O)N[C@@H](CCC(N)=O)C(=O)N[C@@H](CCCCN)C(=O)N[C@@H](CCCCN)C(=O)N[C@@H](CCC(N)=O)C(=O)N[C@@H](CCCNC(=N)N)C(=O)N[C@@H](CCC(=O)O)C(=O)N[C@@H](CCC(N)=O)C(=O)N[C@@H](C)C(=O)N[C@@H](CCC(=O)O)C(=O)N[C@H](C(=O)N[C@@H](CC(N)=O)C(=O)NC(C)(C)C(=O)N[C@@H](CCC(N)=O)C(=O)N[C@H](C(=O)N[C@@H](CC(C)C)C(=O)N[C@@H](C)C(=O)N[C@@H](CCC(N)=O)C(=O)N[C@H](C(N)=O)C(C)C)[C@@H](C)CC)[C@@H](C)O)[C@@H](C)CC)[C@@H](C)CC)C(C)C)C(C)C` [compound 156] (Hexanoyl-VLSLD[dV]PIKLK([γGlu-C16 diacid])KILLEQEKQKKQREQAETN[Aib]QILAQV-NH2), the pEC50 on human CRF2a receptor was 9.54; on CFR1R receptor it was below 6.60. Moreover, on CFR1R receptor, the “Emax (% I)” value was 8 % I.

The values are drawn from patent publication US20260001928A1 (CORTERIA PHARMACEUTICALS, priority 2022, published 2026).
